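Test compounds were applied to cells in 96-well plates for 48 hours at 5 doses. GI50 = concentration required for 50% inhibition of growth. TGI: total growth inhibition.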
How the values were obtained:
Experiment in all cases: DTP human tumour cell line panel, 48 h
NCI-H522 lung = tested on: NCI-H522 lung
SF-539 CNS = tested on: SF-539 CNS
OVCAR-4 ovarian = tested on: OVCAR-4 ovarian
MALME-3M melanoma = tested on: MALME-3M melanoma
SW-620 colon = tested on: SW-620 colon
SK-MEL-2 melanoma = tested on: SK-MEL-2 melanoma
T-47D breast = tested on: T-47D breast
NCI-H226 lung = tested on: NCI-H226 lung
CAKI-1 renal = tested on: CAKI-1 renal
OVCAR-8 ovarian = tested on: OVCAR-8 ovarian
SF-268 CNS = tested on: SF-268 CNS
OVCAR-3 ovarian = tested on: OVCAR-3 ovarian
MOLT-4 leukemia = tested on: MOLT-4 leukemia
HT29 colon = tested on: HT29 colon
MDA-MB-435 = tested on: MDA-MB-435
MCF7 breast = tested on: MCF7 breast
NCI-H460 lung = tested on: NCI-H460 lung
PC-3 prostate = tested on: PC-3 prostate
HOP-62 NSCLC = tested on: HOP-62 NSCLC
NCI/ADR-RES ovarian = tested on: NCI/ADR-RES ovarian
MDA-MB-231 breast = tested on: MDA-MB-231 breast
LOX IMVI melanoma = tested on: LOX IMVI melanoma
UO-31 renal = tested on: UO-31 renal
SNB-19 CNS = tested on: SNB-19 CNS
CCRF-CEM leukemia = tested on: CCRF-CEM leukemia
NCI-H23 lung = tested on: NCI-H23 lung
SK-OV-3 ovarian = tested on: SK-OV-3 ovarian
M14 melanoma = tested on: M14 melanoma
KM12 colon = tested on: KM12 colon

Compound `N#Cc1cnc2ccc(-c3cnc4n[nH]nc4c3)cc2c1N1CCc2cc(F)c(Cl)cc21` has a TGI (NCI-H522 lung) of 16.7 µM, a GI50 (SF-539 CNS) of 3.17 µM and a TGI (SF-539 CNS) of 18.9 µM. It also gave a GI50 (OVCAR-4 ovarian) of 2.66 µM, a TGI (OVCAR-4 ovarian) of 22.3 µM and a GI50 (MALME-3M melanoma) of 2.91 µM. The TGI (MALME-3M melanoma) was 16.4 µM, the GI50 (SW-620 colon) was 5.2 µM and the TGI (SW-620 colon) was 24.6 µM. The GI50 (SK-MEL-2 melanoma) was 2.74 µM, the TGI (SK-MEL-2 melanoma) was 12.7 µM and the GI50 (T-47D breast) was 1.68 µM. The TGI (T-47D breast) was 8 µM, the GI50 (NCI-H226 lung) was 2.2 µM and the TGI (NCI-H226 lung) was 20 µM. It also gave a GI50 (CAKI-1 renal) of 2.99 µM, a TGI (CAKI-1 renal) of 25.2 µM and a GI50 (OVCAR-8 ovarian) of 4.62 µM. For the same compound, the TGI (OVCAR-8 ovarian) was greater than 100 µM, the GI50 (SF-268 CNS) was 3.22 µM and the TGI (SF-268 CNS) was 84.6 µM. It also gave a GI50 (OVCAR-3 ovarian) of 2.97 µM, a TGI (OVCAR-3 ovarian) of 24 µM and a GI50 (MOLT-4 leukemia) of 2.8 µM. The TGI (MOLT-4 leukemia) was 11.4 µM, the GI50 (HT29 colon) was 5.73 µM and the TGI (HT29 colon) was 35 µM. The GI50 (MDA-MB-435) was 3.73 µM, the TGI (MDA-MB-435) was 28.6 µM and the GI50 (MCF7 breast) was 1.92 µM. For the same compound, the TGI (MCF7 breast) was 14 µM, the GI50 (NCI-H460 lung) was 3.48 µM and the TGI (NCI-H460 lung) was 17.4 µM. The GI50 (PC-3 prostate) was 3.11 µM, the TGI (PC-3 prostate) was 25.5 µM and the GI50 (HOP-62 NSCLC) was 3.45 µM. The TGI (HOP-62 NSCLC) was 38.7 µM, the GI50 (NCI/ADR-RES ovarian) was 12.8 µM and the TGI (NCI/ADR-RES ovarian) was 53.3 µM. It also gave a GI50 (MDA-MB-231 breast) of 3.64 µM, a TGI (MDA-MB-231 breast) of 23.3 µM and a GI50 (LOX IMVI melanoma) of 1.76 µM. The TGI (LOX IMVI melanoma) was 11.4 µM, the GI50 (UO-31 renal) was 1.13 µM and the TGI (UO-31 renal) was 11.1 µM. The GI50 (SNB-19 CNS) was 3.9 µM, the TGI (SNB-19 CNS) was 77.9 µM and the GI50 (CCRF-CEM leukemia) was 3.69 µM. For the same compound, the TGI (CCRF-CEM leukemia) was 21.1 µM, the GI50 (NCI-H23 lung) was 3.16 µM and the TGI (NCI-H23 lung) was 16.1 µM. The GI50 (SK-OV-3 ovarian) was 3.52 µM, the TGI (SK-OV-3 ovarian) was 19.2 µM and the GI50 (M14 melanoma) was 5.15 µM. It also gave a TGI (M14 melanoma) of 38.2 µM, a GI50 (KM12 colon) of 4.66 µM and a TGI (KM12 colon) of 32.3 µM.
